# Reference: patent US20230151003A1, “COMPOUNDS AND METHODS OF USE” (Exelixis, Inc., priority 2020, published 2023)
# Biological target: T1, Mer (Homo sapiens, UniProt Q12866)
# T1 construct: host or cells: 293A cells (Thermo Fisher #R70507)
# T1 sequence (Q12866 21-999): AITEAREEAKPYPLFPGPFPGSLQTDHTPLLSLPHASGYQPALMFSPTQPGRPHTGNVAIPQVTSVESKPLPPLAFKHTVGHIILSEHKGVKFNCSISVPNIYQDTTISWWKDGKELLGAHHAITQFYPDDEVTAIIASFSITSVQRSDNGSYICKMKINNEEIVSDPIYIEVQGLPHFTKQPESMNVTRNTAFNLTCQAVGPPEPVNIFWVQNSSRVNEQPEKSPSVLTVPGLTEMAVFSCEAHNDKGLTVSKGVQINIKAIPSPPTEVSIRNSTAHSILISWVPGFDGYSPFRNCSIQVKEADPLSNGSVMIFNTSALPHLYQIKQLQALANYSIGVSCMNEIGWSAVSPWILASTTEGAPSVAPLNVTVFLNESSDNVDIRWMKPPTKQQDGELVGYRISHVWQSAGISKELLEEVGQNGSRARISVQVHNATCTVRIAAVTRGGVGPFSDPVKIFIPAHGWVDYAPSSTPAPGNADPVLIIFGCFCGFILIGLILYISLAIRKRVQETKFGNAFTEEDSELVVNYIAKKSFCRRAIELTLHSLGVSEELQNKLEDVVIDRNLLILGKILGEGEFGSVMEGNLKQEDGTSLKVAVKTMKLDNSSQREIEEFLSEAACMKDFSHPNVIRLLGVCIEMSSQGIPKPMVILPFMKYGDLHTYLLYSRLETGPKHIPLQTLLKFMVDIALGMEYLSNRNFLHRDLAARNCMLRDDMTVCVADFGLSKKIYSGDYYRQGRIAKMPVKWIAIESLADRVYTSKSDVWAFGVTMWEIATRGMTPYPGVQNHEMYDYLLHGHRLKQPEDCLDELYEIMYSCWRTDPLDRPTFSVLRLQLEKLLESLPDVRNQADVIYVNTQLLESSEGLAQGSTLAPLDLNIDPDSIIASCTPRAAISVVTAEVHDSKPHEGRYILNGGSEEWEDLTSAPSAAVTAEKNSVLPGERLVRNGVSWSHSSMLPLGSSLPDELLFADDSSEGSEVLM
# Assay: Mer autophosphorylation ELISA in transient transfected 293A cells
# Assay type: cell-based
# Conditions: Table 3 Cellular Activities; MERTK-transfected 293A cells, phospho-Mer ELISA
# In short: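 293A cells transiently transfected with human MERTK DNA, replated after 24 h, then treated 1 h with 8-point compound dilutions in serum-free medium (0.3% DMSO). Lysates assayed by phospho-Mer sandwich ELISA against phospho-Mer standard; DMSO = 100%, reference inhibitor = 0% activity; IC50 by 4-parameter logistic fit.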
row,IC50,SMILES
1,≤ 100 nM,"COc1cc2nccc(Oc3ccc(NC(=O)c4c(C)n(C)c(C)c(-c5coc6ccccc56)c4=O)cc3F)c2nc1OC [Compound 262, 5-(1-Benzofuran-3-yl)-N-[4-[(6,7-dimethoxy-1,5-naphthyridin-4-yl)oxy]-3-fluorophenyl]-1,2,6-trimethyl-4-oxopyridine-3-carboxamide]"
2,≤ 100 nM,"COc1cc(-n2c(C)ccc(C(=O)Nc3ccc(Oc4ccnc5cc(OC)c(OC)nc45)c(F)c3)c2=O)ccn1 [Compound 226, N-[4-[(6,7-Dimethoxy-1,5-naphthyridin-4-yl)oxy]-3-fluorophenyl]-1-(2-methoxypyridin-4-yl)-6-methyl-2-oxopyridine-3-carboxamide]"
3,≤ 100 nM,"COc1cc2nccc(Oc3ccc(NC(=O)c4c5n(cc(-c6ccc(C)s6)c4=O)CCOC5)cc3F)c2nc1OC [Compound 304, N-[4-[(6,7-Dimethoxy-1,5-naphthyridin-4-yl)oxy]-3-fluorophenyl]-7-(5-methylthiophen-2-yl)-8-oxo-3,4-dihydro-1H-pyrido[2,1-c][1,4]oxazine-9-carboxamide]"
4,≤ 100 nM,"COc1cnc2c(Oc3ccc(NC(=O)c4c(C)n(C)cc(-c5ccc(F)cn5)c4=O)cc3F)ccnc2c1 [Compound 73, N-[3-Fluoro-4-[(7-methoxy-1,5-naphthyridin-4-yl)oxy]phenyl]-5-(5-fluoropyridin-2-yl)-1,2-dimethyl-4-oxopyridine-3-carboxamide]"
5,≤ 100 nM,"COc1cc2nccc(Oc3ccc(NC(=O)c4ccc(C)n(-c5cccnn5)c4=O)cc3F)c2nc1OC [Compound 234, N-[4-[(6,7-Dimethoxy-1,5-naphthyridin-4-yl)oxy]-3-fluorophenyl]-6-methyl-2-oxo-1-pyridazin-3-ylpyridine-3-carboxamide]"
6,≤ 100 nM,"COc1cc2nccc(Oc3ccc(NC(=O)c4cnc(C)c(-c5ccco5)c4O)cc3F)c2cc1OC [Compound 259, N-[4-(6,7-Dimethoxyquinolin-4-yl)oxy-3-fluorophenyl]-5-(furan-2-yl)-4-hydroxy-6-methylpyridine-3-carboxamide]"
7,≤ 100 nM,"COc1cnc2c(Oc3ccc(NC(=O)c4ccc(C)n(-c5ccc(F)cn5)c4=O)cc3F)ccnc2c1 [Compound 45, N-[3-Fluoro-4-[(7-methoxy-1,5-naphthyridin-4-yl)oxy]phenyl]-1-(5-fluoropyridin-2-yl)-6-methyl-2-oxopyridine-3-carboxamide]"
8,≤ 100 nM,"COc1cnc2c(Oc3ccc(NC(=O)c4cnc(C)c(-c5cccs5)c4O)cc3)ccnc2c1 [Compound 257, 4-Hydroxy-N-[4-[(7-methoxy-1,5-naphthyridin-4-yl)oxy]phenyl]-6-methyl-5-thiophen-2-ylpyridine-3-carboxamide]"
9,≤ 100 nM,"COc1cc2nccc(Oc3ccc(NC(=O)c4ccc(C)n(-c5ccncc5)c4=O)cc3F)c2nc1OC [Compound 221, N-[4-[(6,7-Dimethoxy-1,5-naphthyridin-4-yl)oxy]-3-fluorophenyl]-6-methyl-2-oxo-1-pyridin-4-ylpyridine-3-carboxamid]"
10,≤ 100 nM,"COc1cc2nccc(Oc3ccc(NC(=O)c4cnc(C)c(-c5ccc(F)cn5)c4O)cc3F)c2nc1OC [Compound 85, N-[4-[(6,7-Dimethoxy-1,5-naphthyridin-4-yl)oxy]-3-fluorophenyl]-5-(5-fluoropyridin-2-yl)-4-hydroxy-6-methylpyridine-3-carboxamide]"
11,≤ 100 nM,"COc1cc2nccc(Oc3ccc(NC(=O)c4c(C)cc(C)n(-c5ccc(F)cn5)c4=O)cc3)c2nc1OC [Compound 245, N-[4-[(6,7-Dimethoxy-1,5-naphthyridin-4-yl)oxy]phenyl]-1-(5-fluoropyridin-2-yl)-4,6-dimethyl-2-oxopyridine-3-carboxamide]"
12,≤ 100 nM,"COc1cc2nccc(Oc3ccc(NC(=O)c4ccc(C)n(-c5cc[n+]([O-])cc5)c4=O)cc3F)c2nc1OC [Compound 231, N-[4-[(6,7-Dimethoxy-1,5-naphthyridin-4-yl)oxy]-3-fluorophenyl]-6-methyl-1-(1-oxidopyridin-1-ium-4-yl)-2-oxopyridine-3-carboxamide]"
